Data published in ChEMBL document CHEMBL4507256 (2021).

Tests used:
[1] = target: AP2-associated protein kinase 1 (Homo sapiens) (UniProt Q2M2I8); conditions: Compound concentration 1000.0 nM
[2] = tested on: Tyrosine-protein kinase ABL1 (Homo sapiens), P00519 [E255K]; conditions: Compound concentration 1000.0 nM
[3] = tested on: Tyrosine-protein kinase ABL1 (Homo sapiens), P00519 [F317L]; conditions: Compound concentration 1000.0 nM
[4] = tested on: Tyrosine-protein kinase ABL1 (Homo sapiens), P00519 [H396P]; conditions: Compound concentration 1000.0 nM
[5] = target: Tyrosine-protein kinase ABL2 (Homo sapiens) (UniProt P42684); conditions: Compound concentration 1000.0 nM
[6] = target: Activin receptor type-1B (Homo sapiens) (UniProt P36896); conditions: Compound concentration 1000.0 nM
[7] = target: Activin receptor type-2B (Homo sapiens) (UniProt Q13705); conditions: Compound concentration 1000.0 nM
[8] = target: Ankyrin repeat and protein kinase domain-containing protein 1 (Homo sapiens) (UniProt Q8NFD2); conditions: Compound concentration 1000.0 nM
[9] = target: Protein-tyrosine kinase 6 (Homo sapiens) (UniProt Q13882); conditions: Compound concentration 1000.0 nM
[10] = target: Mitotic checkpoint serine/threonine-protein kinase BUB1 (Homo sapiens) (UniProt O43683); conditions: Compound concentration 1000.0 nM
[11] = target: Calcium/calmodulin-dependent protein kinase type II subunit beta (Homo sapiens) (UniProt Q13554); conditions: Compound concentration 1000.0 nM
[12] = target: Discoidin domain-containing receptor 2 (Homo sapiens) (UniProt Q16832); conditions: Compound concentration 1000.0 nM
[13] = target: Ephrin type-A receptor 6 (Homo sapiens) (UniProt Q9UF33); conditions: Compound concentration 1000.0 nM
[14] = target: Mitogen-activated protein kinase 6 (Homo sapiens) (UniProt Q16659); conditions: Compound concentration 1000.0 nM
[15] = target: Tyrosine-protein kinase Fes/Fps (Homo sapiens) (UniProt P07332); conditions: Compound concentration 1000.0 nM
[16] = target: Fibroblast growth factor receptor 4 (Homo sapiens) (UniProt P22455); conditions: Compound concentration 1000.0 nM
[17] = target: Tyrosine-protein kinase FRK (Homo sapiens) (UniProt P42685); conditions: Compound concentration 1000.0 nM
[18] = target: Inhibitor of nuclear factor kappa-B kinase subunit alpha (Homo sapiens) (UniProt O15111); conditions: Compound concentration 1000.0 nM
[19] = target: Insulin receptor-related protein (Homo sapiens) (UniProt P14616); conditions: Compound concentration 1000.0 nM
[20] = target: Serine/threonine-protein kinase LATS1 (Homo sapiens) (UniProt O95835); conditions: Compound concentration 1000.0 nM
[21] = target: Serine/threonine-protein kinase 4 (Homo sapiens) (UniProt Q13043); conditions: Compound concentration 1000.0 nM
[22] = target: Serine/threonine-protein kinase Nek6 (Homo sapiens) (UniProt Q9HC98); conditions: Compound concentration 1000.0 nM
[23] = target: Mitogen-activated protein kinase 13 (Homo sapiens) (UniProt O15264); conditions: Compound concentration 1000.0 nM
[24] = target: Phosphatidylinositol 4,5-bisphosphate 3-kinase catalytic subunit gamma isoform (Homo sapiens) (UniProt P48736); conditions: Compound concentration 1000.0 nM
[25] = target: Phosphatidylinositol 4-kinase beta (Homo sapiens) (UniProt Q9UBF8); conditions: Compound concentration 1000.0 nM
[26] = target: Serine/threonine-protein kinase pim-1 (Homo sapiens) (UniProt P11309); conditions: Compound concentration 1000.0 nM
[27] = target: Phosphatidylinositol 5-phosphate 4-kinase type-2 gamma (Homo sapiens) (UniProt Q8TBX8); conditions: Compound concentration 1000.0 nM
[28] = target: Protein kinase C eta type (Homo sapiens) (UniProt P24723); conditions: Compound concentration 1000.0 nM
[29] = target: Ribosomal protein S6 kinase alpha-4 (Homo sapiens) (UniProt O75676); conditions: Compound concentration 1000.0 nM
[30] = target: Ribosomal protein S6 kinase alpha-1 (Homo sapiens) (UniProt Q15418); conditions: Compound concentration 1000.0 nM
[31] = target: Serine/threonine-protein kinase Sgk2 (Homo sapiens) (UniProt Q9HBY8); conditions: Compound concentration 1000.0 nM
[32] = target: STE20-like serine/threonine-protein kinase (Homo sapiens) (UniProt Q9H2G2); conditions: Compound concentration 1000.0 nM
[33] = target: Proto-oncogene tyrosine-protein kinase Src (Homo sapiens) (UniProt P12931); conditions: Compound concentration 1000.0 nM
[34] = target: SRSF protein kinase 1 (Homo sapiens) (UniProt Q96SB4); conditions: Compound concentration 1000.0 nM
[35] = target: SRSF protein kinase 2 (Homo sapiens) (UniProt P78362); conditions: Compound concentration 1000.0 nM
[36] = target: Serine/threonine-protein kinase TAO1 (Homo sapiens) (UniProt Q7L7X3); conditions: Compound concentration 1000.0 nM
[37] = target: Non-receptor tyrosine-protein kinase TNK1 (Homo sapiens) (UniProt Q13470); conditions: Compound concentration 1000.0 nM
[38] = target: NT-3 growth factor receptor (Homo sapiens) (UniProt Q16288); conditions: Compound concentration 1000.0 nM
[39] = target: Transient receptor potential cation channel subfamily M member 6 (Homo sapiens) (UniProt Q9BX84); conditions: Compound concentration 1000.0 nM
[40] = target: Vascular endothelial growth factor receptor 2 (Homo sapiens) (UniProt P35968); conditions: Compound concentration 1000.0 nM
[41] = target: Mitogen-activated protein kinase kinase kinase 19 (Homo sapiens) (UniProt Q56UN5); conditions: Compound concentration 1000.0 nM
[42] = target: 5-hydroxytryptamine receptor 1D (Homo sapiens) (UniProt P28221); conditions: Compound concentration 10.0 uM
[43] = target: Alpha-1B adrenergic receptor (Homo sapiens) (UniProt P35368); conditions: Compound concentration 10.0 uM
[44] = target: Alpha-2A adrenergic receptor (Homo sapiens) (UniProt P08913); conditions: Compound concentration 10.0 uM
[45] = target: Muscarinic acetylcholine receptor M3 (Homo sapiens) (UniProt P20309); conditions: Compound concentration 10.0 uM

Chain of Activin receptor type-1B (Homo sapiens) (P36896 whole entry): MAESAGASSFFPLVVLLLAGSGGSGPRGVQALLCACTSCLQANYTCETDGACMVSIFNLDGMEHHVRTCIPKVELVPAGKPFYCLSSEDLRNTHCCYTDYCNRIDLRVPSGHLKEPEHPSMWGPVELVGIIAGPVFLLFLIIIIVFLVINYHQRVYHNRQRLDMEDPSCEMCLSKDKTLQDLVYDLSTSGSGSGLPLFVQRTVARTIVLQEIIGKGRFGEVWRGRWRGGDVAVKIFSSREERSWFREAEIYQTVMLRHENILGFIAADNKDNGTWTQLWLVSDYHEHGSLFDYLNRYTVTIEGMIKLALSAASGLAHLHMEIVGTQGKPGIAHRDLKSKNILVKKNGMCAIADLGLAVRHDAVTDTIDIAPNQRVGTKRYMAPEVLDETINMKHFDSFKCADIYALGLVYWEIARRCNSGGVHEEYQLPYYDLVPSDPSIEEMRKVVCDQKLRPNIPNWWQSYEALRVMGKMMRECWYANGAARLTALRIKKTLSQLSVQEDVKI
Chain of Serine/threonine-protein kinase pim-1 (Homo sapiens) (P11309 whole entry, looked up): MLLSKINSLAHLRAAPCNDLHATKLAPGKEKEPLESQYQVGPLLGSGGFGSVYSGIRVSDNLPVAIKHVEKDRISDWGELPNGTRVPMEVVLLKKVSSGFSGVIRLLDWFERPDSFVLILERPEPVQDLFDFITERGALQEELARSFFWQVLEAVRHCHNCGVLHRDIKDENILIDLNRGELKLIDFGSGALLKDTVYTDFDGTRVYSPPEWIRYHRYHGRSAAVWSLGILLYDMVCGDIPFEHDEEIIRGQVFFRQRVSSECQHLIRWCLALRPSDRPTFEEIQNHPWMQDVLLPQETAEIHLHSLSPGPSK
Chain of Discoidin domain-containing receptor 2 (Homo sapiens) (Q16832 whole entry, the tested form may be a part): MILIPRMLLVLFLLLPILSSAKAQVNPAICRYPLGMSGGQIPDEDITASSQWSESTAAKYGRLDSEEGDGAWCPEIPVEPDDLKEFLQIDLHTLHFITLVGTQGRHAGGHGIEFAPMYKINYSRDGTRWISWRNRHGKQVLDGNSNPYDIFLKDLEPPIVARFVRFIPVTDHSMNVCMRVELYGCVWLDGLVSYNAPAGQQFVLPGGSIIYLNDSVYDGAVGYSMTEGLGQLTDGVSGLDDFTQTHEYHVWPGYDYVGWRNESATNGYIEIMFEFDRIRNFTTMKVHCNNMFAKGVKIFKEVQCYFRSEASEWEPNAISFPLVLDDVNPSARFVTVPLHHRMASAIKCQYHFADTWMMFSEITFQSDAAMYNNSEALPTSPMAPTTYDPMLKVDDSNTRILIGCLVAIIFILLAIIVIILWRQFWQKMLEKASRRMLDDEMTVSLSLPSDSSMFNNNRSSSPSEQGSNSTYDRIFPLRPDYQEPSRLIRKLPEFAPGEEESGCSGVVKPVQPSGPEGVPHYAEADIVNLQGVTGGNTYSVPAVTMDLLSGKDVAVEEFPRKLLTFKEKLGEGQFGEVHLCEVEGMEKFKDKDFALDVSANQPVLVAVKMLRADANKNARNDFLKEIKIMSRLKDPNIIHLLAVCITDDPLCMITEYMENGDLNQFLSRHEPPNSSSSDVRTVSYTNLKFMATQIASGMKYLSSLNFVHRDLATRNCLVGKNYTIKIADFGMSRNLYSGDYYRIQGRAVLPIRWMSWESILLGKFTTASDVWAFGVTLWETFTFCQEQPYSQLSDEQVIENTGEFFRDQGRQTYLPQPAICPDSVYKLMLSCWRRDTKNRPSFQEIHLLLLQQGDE
Chain of NT-3 growth factor receptor (Homo sapiens) (Q16288 32-839 limits assumed): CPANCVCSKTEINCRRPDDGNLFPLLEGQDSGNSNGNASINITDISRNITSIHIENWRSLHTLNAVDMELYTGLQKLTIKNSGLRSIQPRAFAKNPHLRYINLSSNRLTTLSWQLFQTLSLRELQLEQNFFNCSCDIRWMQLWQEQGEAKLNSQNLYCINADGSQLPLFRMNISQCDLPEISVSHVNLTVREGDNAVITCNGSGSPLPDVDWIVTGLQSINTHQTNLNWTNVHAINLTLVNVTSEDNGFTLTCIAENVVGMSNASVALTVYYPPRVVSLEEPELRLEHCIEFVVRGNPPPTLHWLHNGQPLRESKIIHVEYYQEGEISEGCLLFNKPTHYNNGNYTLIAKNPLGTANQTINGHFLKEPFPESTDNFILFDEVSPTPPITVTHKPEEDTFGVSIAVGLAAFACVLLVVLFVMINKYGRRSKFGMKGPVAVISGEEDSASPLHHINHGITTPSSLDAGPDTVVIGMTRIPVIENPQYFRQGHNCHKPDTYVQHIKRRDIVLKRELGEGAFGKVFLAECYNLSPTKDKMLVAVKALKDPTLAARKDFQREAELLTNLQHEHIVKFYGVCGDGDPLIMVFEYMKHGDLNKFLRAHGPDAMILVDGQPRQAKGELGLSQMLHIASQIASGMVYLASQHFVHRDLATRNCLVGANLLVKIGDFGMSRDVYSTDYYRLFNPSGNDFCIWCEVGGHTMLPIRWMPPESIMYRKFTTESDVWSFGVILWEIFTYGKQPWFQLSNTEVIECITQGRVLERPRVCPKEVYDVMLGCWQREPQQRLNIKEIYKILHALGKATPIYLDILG
Chain of Serine/threonine-protein kinase 4 (Homo sapiens) (Q13043 whole entry): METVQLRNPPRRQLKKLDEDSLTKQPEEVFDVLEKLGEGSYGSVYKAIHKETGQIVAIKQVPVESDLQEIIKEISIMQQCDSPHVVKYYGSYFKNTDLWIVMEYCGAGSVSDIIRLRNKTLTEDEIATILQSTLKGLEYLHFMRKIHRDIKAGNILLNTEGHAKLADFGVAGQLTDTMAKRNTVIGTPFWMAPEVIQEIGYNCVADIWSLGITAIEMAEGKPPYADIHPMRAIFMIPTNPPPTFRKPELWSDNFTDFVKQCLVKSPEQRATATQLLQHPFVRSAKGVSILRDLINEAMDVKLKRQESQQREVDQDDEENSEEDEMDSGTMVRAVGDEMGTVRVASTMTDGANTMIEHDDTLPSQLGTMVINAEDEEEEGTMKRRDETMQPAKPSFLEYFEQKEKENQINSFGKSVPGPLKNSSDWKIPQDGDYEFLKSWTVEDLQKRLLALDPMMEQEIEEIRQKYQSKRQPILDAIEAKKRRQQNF
Chain of AP2-associated protein kinase 1 (Homo sapiens) (Q2M2I8 whole entry, looked up): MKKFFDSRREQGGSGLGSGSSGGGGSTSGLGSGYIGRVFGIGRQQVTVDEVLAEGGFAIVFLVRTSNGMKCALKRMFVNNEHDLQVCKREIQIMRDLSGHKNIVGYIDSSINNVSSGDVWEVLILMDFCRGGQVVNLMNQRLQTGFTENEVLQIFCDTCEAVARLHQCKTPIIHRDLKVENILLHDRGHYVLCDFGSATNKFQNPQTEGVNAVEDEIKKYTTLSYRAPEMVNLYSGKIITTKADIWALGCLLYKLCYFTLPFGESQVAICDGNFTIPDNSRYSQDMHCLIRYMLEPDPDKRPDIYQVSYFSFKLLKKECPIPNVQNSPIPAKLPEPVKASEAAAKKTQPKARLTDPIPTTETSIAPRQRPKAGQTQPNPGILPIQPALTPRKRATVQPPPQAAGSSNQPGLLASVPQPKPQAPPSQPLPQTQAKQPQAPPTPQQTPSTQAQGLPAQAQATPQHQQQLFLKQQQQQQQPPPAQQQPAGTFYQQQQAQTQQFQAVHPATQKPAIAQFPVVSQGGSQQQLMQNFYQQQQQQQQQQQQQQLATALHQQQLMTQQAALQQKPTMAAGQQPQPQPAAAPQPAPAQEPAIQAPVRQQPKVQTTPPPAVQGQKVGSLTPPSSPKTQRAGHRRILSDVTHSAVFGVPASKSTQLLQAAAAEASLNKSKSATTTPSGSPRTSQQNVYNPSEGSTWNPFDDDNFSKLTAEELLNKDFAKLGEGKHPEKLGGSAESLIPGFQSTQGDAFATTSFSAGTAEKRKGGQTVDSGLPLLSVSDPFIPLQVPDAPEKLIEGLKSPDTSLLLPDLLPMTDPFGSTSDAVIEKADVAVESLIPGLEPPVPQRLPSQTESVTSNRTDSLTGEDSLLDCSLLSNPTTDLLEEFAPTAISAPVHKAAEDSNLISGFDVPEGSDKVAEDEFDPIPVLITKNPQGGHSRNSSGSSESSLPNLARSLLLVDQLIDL
Chain of Phosphatidylinositol 4-kinase beta (Homo sapiens) (Q9UBF8 2-816 limits assumed): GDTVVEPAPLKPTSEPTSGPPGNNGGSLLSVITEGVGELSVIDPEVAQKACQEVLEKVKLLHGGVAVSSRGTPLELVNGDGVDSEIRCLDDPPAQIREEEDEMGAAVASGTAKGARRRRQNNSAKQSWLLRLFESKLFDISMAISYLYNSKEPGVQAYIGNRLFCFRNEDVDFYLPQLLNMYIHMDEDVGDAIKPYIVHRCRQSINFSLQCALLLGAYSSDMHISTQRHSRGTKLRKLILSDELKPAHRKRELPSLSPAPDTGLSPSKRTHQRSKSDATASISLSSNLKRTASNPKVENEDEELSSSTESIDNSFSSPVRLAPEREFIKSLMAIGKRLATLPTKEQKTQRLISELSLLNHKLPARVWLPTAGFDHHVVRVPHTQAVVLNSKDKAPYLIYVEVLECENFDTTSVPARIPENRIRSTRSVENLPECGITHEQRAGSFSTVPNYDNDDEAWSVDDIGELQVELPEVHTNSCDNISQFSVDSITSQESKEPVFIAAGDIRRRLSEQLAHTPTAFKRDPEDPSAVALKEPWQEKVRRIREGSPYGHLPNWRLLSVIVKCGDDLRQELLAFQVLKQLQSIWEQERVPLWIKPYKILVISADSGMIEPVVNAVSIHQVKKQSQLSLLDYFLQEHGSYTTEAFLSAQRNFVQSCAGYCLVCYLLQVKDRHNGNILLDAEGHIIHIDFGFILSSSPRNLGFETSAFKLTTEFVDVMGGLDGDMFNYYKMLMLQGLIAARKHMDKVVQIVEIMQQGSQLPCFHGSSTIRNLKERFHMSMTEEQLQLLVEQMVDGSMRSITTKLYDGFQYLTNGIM

CCC(=N\O)/C(C)=C/c1ccc(F)cc1 [A-079]
inactive: residual activity [1] 89% | residual activity [2] 52% | residual activity [3] 81% | residual activity [4] 72% | residual activity [5] 82% | residual activity [6] 77% | residual activity [7] 91% | residual activity [8] 79% | residual activity [9] 100% | residual activity [10] 88% | residual activity [11] 97% | residual activity [12] 91% | residual activity [13] 67% | residual activity [14] 73% | residual activity [15] 73% | residual activity [16] 96% | residual activity [17] 100% | residual activity [18] 67% | residual activity [19] 83% | residual activity [20] 100% | residual activity [21] 78% | residual activity [22] 87% | residual activity [23] 92% | residual activity [24] 100% | residual activity [25] 50% | residual activity [26] 85% | residual activity [27] 83% | residual activity [28] 100% | residual activity [29] 96% | residual activity [30] 100% | residual activity [31] 78% | residual activity [32] 91% | residual activity [33] 91% | residual activity [34] 100% | residual activity [35] 75% | residual activity [36] 100% | residual activity [37] 66% | residual activity [38] 88% | residual activity [39] 64% | residual activity [40] 81% | residual activity [41] 66% | inhibition [42] 13.9% | inhibition [43] 3.8% | inhibition [44] 5.31% | inhibition [45] -6.83%

CCC(=N\O)/C(C)=C/c1ccc(F)c(C)c1 [A-226]
inactive: residual activity [1] 98% | residual activity [2] 100% | residual activity [3] 100% | residual activity [4] 100% | residual activity [5] 92% | residual activity [6] 82% | residual activity [7] 100% | residual activity [8] 100% | residual activity [9] 75% | residual activity [10] 100% | residual activity [11] 100% | residual activity [12] 100% | residual activity [13] 100% | residual activity [14] 100% | residual activity [15] 93% | residual activity [16] 83% | residual activity [17] 80% | residual activity [18] 95% | residual activity [19] 100% | residual activity [20] 89% | residual activity [21] 70% | residual activity [22] 99% | residual activity [23] 100% | residual activity [24] 100% | residual activity [25] 100% | residual activity [26] 70% | residual activity [27] 85% | residual activity [28] 68% | residual activity [29] 100% | residual activity [30] 96% | residual activity [31] 100% | residual activity [32] 93% | residual activity [33] 98% | residual activity [34] 100% | residual activity [35] 97% | residual activity [36] 100% | residual activity [37] 100% | residual activity [38] 100% | residual activity [39] 100% | residual activity [40] 100% | residual activity [41] 98% | inhibition [42] 4.54% | inhibition [43] 0.56% | inhibition [44] 2.82% | inhibition [45] -5.75%
